Laboratory results reported in patent US9428513B2, “Triazolopyrazine” (Boehringer Ingelheim International GmbH, priority 2013, dated 2016).

Molecular target: BRD4-BD1 (Homo sapiens (Human), UniProt O60885)
Assay: BRD4-H4 Tetraacetylated Peptide Inhibition AlphaScreen
Type: biochemical
Conditions: GST-BRD4-BD1 (aa 44-168) / biotinylated Acetyl-Histone H4 (Lys5, 8, 12, 16) peptide
Method: Biological Methods BRD4-H4 Tetraacetylated Peptide Inhibition AlphaScreen
Compounds are diluted in serial dilution 1:5 in assay buffer from 10 mM stock in DMSO (100 μM start concentration) in white OptiPlate-384 (PerkinElmer). A mix consisting of 15 nM GST-BRD4-BD1 protein (aa 44-168) or 150 nM GST-BRD4-BD2 (aa 333-460) and 15 nM biotinylated Acetyl-Histone H4 (Lys5, 8, 12, 16) peptide is prepared in assay buffer (50 mM HEPES pH=7.4; 25 mM NaCl; 0.05% Tween 20; 0.1% bovine serum albumin (BSA); 10 mM dithiothreitol (DTT)). 6 μl of the mix is added to the compound dilutions. Subsequently, 6 μl of premixed AlphaLISA Glutathione Acceptor Beads and AlphaScreen Streptavidin Donor Beads from PerkinElmer (in assay buffer at a concentration of 10 μg/ml each) are added and the samples are incubated for 30 min at RT in the dark (shaking 300 rpm). Afterwards, the signal is measured in a PerkinElmer Envision HTS Multilabel Reader using the AlphaScreen protocol from PerkinElmer.
Each plate contains negative controls where biotinylated Acetyl-Histone H4 peptide and GST-BRD4-BD1 or GST-BRD4-BD2 are left out and replaced by assay buffer. Negative control values are entered as low basis value when using the software GraphPad Prism for calculations. Furthermore, a positive control (probe molecule JQ1+ with protein/peptide mix) is pipetted. Determination of IC50 values are carried out using GraphPad Prism 3.03 software (or updates thereof).

Row | Structure (SMILES) | IC50 [µM]
1 | COC[C@@H](C)n1c(-c2cn3c(C)nnc3c(NC(C)C)n2)nc2cnc(N3CCOCC3)cc21 [I-2] | 0.333
2 | COC[C@H](C)n1c(-c2cn3c(C)nnc3c(NC(C)C)n2)nc2cnc(N3CCOCC3)cc21 [I-3] | 0.033
3 | Cc1nnc2c(NC(C)C)nc(-c3nc4cnc(N5CCOCC5)cc4n3CCOC(C)C)cn12 [I-4] | 0.043
4 | CNc1nc(-c2nc3cnc(N4CCOCC4)cc3n2CC2CCCO2)cn2c(C)nnc12 (stereo not shown) [I-9] | 0.065
5 | Cc1nnc2c(NC(C)C)nc(-c3nc4cnc(N5CCOCC5)cc4n3C[C@H]3CCCO3)cn12 [I-10] | 0.054
6 | CNc1nc(-c2nc3cnc(N4CCOC[C@@H]4C)cc3n2[C@@H](C)COC)cn2c(C)nnc12 [I-13] | 0.027
7 | COC[C@H](C)n1c(-c2cn3c(C)nnc3c(NC(C)C)n2)nc2ccc(C3CCOCC3)cc21 [I-14] | 0.049
8 | COC[C@H](C)n1c(-c2cn3c(C)nnc3c(NC(C)C)n2)nc2ccc(N3CCOC[C@@H]3C)cc21 [I-19] | 0.058
9 | COC[C@H](C)n1c(-c2cn3c(C)nnc3c(NC(C)C)n2)nc2ccc(N)cc21 [I-20] | 0.157
10 | Cc1nnc2c(NC3CCN(C)CC3)nc(-c3nc4cnc(N5CCOCC5)cc4n3CCOC(C)C)cn12 [I-22] | 0.035
11 | Cc1nnc2c(NC3CCN(S(C)(=O)=O)CC3)nc(-c3nc4cnc(N5CCOCC5)cc4n3CCOC(C)C)cn12 [I-23] | 0.122
12 | COC[C@H](C)n1c(-c2cn3c(C)nnc3c(NC(C)C)n2)nc2ccc(C3CN(C)CCO3)cc21 (stereo partly shown) [I-24] | 0.063
13 | COC[C@H](C)n1c(-c2cn3c(C)nnc3c(N)n2)nc2cnc(N3CCOCC3)cc21 [I-26] | 0.123
14 | Cc1nnc2c(NC(C)C)nc(-c3nc4cnc(N5CCOC[C@@H]5C)cc4n3C(C)CC(F)(F)F)cn12 (stereo partly shown) [I-27] | 0.026
15 | COC[C@H](C)n1c(-c2cn3c(C)nnc3c(NC(C)C)n2)nc2ccc(N3CCOCC3)nc21 [I-28] | 0.069
16 | COCCn1c(-c2cn3c(C)nnc3c(NC(C)C)n2)nc2nc(N3CCOCC3)ccc21 [I-29] | 0.049

The next lines start with the values.

Row | IC50 [µM] | Structure (SMILES)
17 | 0.032 | COCCn1c(-c2cn3c(C)nnc3c(NC(C)C)n2)nc2cnc(N3CCOCC3)cc21 [I-1, 6-[1-(2-methoxyethyl)-6-(morpholin-4-yl)-1H-imidazo[4,5-c]pyridin-2-yl]-3-methyl-N-(propan-2-yl)-[1,2,4]triazolo[4,3-a]pyrazin-8-amine]
18 | 0.033 | CCOCCn1c(-c2cn3c(C)nnc3c(NC(C)C)n2)nc2cnc(N3CCOCC3)cc21 [I-5]
19 | 0.051 | CNc1nc(-c2nc3cnc(N4CCOCC4)cc3n2[C@@H](C)COC)cn2c(C)nnc12 [I-6]
20 | 0.055 | CNc1nc(-c2nc3cnc(N4CCOCC4)cc3n2C[C@@H]2CCCO2)cn2c(C)nnc12 [I-7]
21 | 0.055 | Cc1nnc2c(NC(C)C)nc(-c3nc4cnc(N5CCOCC5)cc4n3C[C@@H]3CCCO3)cn12 [I-8]
22 | 0.549 | CNc1nc(-c2nc3cnc(N4CCOCC4)cc3n2[C@H](C)COC)cn2c(C)nnc12 [I-11]
23 | 0.051 | COC[C@H](C)n1c(-c2cn3c(C)nnc3c(NC(C)C)n2)nc2cnc(N3CCOC[C@@H]3C)cc21 [I-12]
24 | 0.123 | COC[C@H](C)n1c(-c2cn3c(C)nnc3c(NC(C)C)n2)nc2ccc(C(C)C)cc21 [I-15]
25 | 0.022 | COC[C@H](C)n1c(-c2cn3c(C)nnc3c(NC(C)C)n2)nc2cc3c(cc21)N(C)C(=O)C3(C)C [I-16]
26 | 0.069 | COC[C@H](C)n1c(-c2cn3c(C)nnc3c(NC(C)C)n2)nc2cnc(N)cc21 [I-18]
27 | 0.017 | COC[C@H](C)n1c(-c2cn3c(C)nnc3c(NC(C)C)n2)nc2cc3c(cc21)N(C(C)C)S(=O)(=O)C3(C)C [I-21]
28 | 0.009 | Cc1nnc2c(NC(C)C)nc(-c3nc4cnc(N5CCOC[C@@H]5C)cc4n3C(C)CC3CC3)cn12 (stereo partly shown) [I-25]
